Earlier results, collected in US10993442B2, “Ultra-high loading glyphosate concentrate” (STEPAN COMPANY, priority 2008, dated 2021).
Structures can show the parent of a compound that is named as a salt.

Settings: for Solubility in water, glyphosate acid equivalent: as acid equivalent; for Solubility in water: as salt

In the case of O=C(O)CNCP(=O)(O)O [glyphosate, N-phosphonomethylglycine], the Water solubility (free acid form) is listed as “low”.

For O=C(O)CNCP(=O)(O)O [glyphosate potassium salt], the “Solubility in water, glyphosate acid equivalent” value is given as “about 50 % by weight glyphosate acid equivalent (a.e.)” and the Solubility in water is given as “about 61 % by weight”.

For CC(C)N.O=C(O)CNCP(=O)(O)O [isopropylamine salt of glyphosate], the “Solubility in water, glyphosate acid equivalent” value is given as “about 47 % by weight glyphosate acid equivalent (a.e.)” and the Solubility in water is given as “about 63 % by weight”.
